Test results as given in patent publication US9938322B2, “β-hairpin peptidomimetics” (priority 2013, dated 2018).
*1 amine or outer side, *2 acyl side, *3 side chain or, on linkers, in order; H or OH if unused. Where a SMILES comes first, the peptide text is derived from it. Side-chain parts run from the residue outwards. [ ]: non-standard residue; d: D form. The star is where a group is joined. NH(4-Cl-phenyl) = Clc1ccc(N*)cc1; Cha = N[C@@H](CC1CCCCC1)C(=O)O; Tle = CC(C)(C)[C@H](N)C(=O)O; NH(2-ClPh) = Clc1ccccc1N*; dDab = NCC[C@@H](N)C(=O)O; Orn = NCCC[C@H](N)C(=O)O; Dab = NCC[C@H](N)C(=O)O; Dap = NC[C@H](N)C(=O)O; CO = O=C([*:1])[*:2]

Tests used:
Assay type in all cases: cell-based
[1] = system: human red blood cells (hRBC); test: Hemolysis of human red blood cells
Summary of the method: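 Washed fresh human erythrocytes (20% v/v, about 0.9×10^9 cells/ml final) incubated with peptide at 100 μg/ml for 1 h at 37° C with shaking. Supernatant OD540 read; hemolysis expressed relative to 2.5% Triton X-100 (100%) and PBS with 0.001% acetic acid (0%).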

[2] = system: Acinetobacter baumannii DSM 30008; conditions: Mueller-Hinton II broth + 0.02% BSA, 18-20 hours at 35° C.
Procedure: (§1) Lyophilized peptides were weighed on a Microbalance (Mettler MT5) and dissolved in sterile water to a final concentration of 1 mg/ml. Stock solutions were kept at +4° C., light protected.
(§2) The selective antimicrobial activities of the peptides were determined in 96-well plates (Greiner, polystyrene) by the standard NCCLS broth microdilution method (National Committee for Clinical Laboratory Standards 1993. Methods for dilution antimicrobial susceptibility tests for bacteria that grow aerobically, 3rd ed. Approved standard M7-A6; National Committee for Clinical laboratory standards, Wayne, Pa.) with slight modifications. Inocula of the microorganisms were diluted into Mueller-Hinton II (MH, cation adjusted) broth+0.02% BSA and compared with a 0.5 McFarland standard to give appr. 10^6 colony forming units (CFU)/ml. Aliquots (50 μl) of inoculate were added to 50 μl of MH broth+0.02% BSA containing the peptide in serial two-fold dilutions. The following microorganisms were used to determine antibiotic selectivity of the peptides: Escherichia coli ATCC 25922, Klebsiella pneumoniae ATCC 13883 and Acinetobacter baumannii DSM 30008.

[3] = system: Escherichia coli ATCC 25922; conditions: Mueller-Hinton II broth + 0.02% BSA, 18-20 hours at 35° C.
Procedure: as §1, §2

[4] = system: Klebsiella pneumoniae ATCC 13883; conditions: Mueller-Hinton II broth + 0.02% BSA, 18-20 hours at 35° C.
Procedure: as §1, §2

[5] = 100 μg/ml, 20% hRBC, 1 h at 37° C.

CC(C)C[C@@H]1NC(=O)[C@@H]2CCCN2C(=O)[C@H]2CCCN2C(=O)[C@H](CO)NC(=O)[C@H](C)NC(=O)[C@H](C(C)(C)C)NC(=O)[C@H](CCN)NC(=O)[C@H](Cc2c[nH]c3ccccc23)NC(=O)[C@H](CCN)NC(=O)[C@@H](CCN)NC(=O)[C@H](CCCN)NC(=O)[C@H](CCN)NC(=O)[C@H](CC2CCCCC2)NC(=O)[C@H](CNC(=O)Nc2ccccc2Cl)NC1=O [compound 38] (cyclo(L[Dap]([CO-NH(2-ClPh)])[Cha][Dab][Orn][dDab][Dab]W[Dab][Tle]AS[dP]P))
Hemolysis at 100 μg/ml [1, 5]: 4%
Acinetobacter baumannii DSM 30008 MIC [2]: 1 µg/mL
Escherichia coli ATCC 25922 MIC [3]: 1 µg/mL
Klebsiella pneumoniae ATCC 13883 MIC [4]: 1 µg/mL

C[C@@H]1NC(=O)[C@H](CNC(=O)Nc2ccccc2Cl)NC(=O)[C@@H]2CCCN2C(=O)[C@H]2CCCN2C(=O)[C@H](CO)NC(=O)[C@H](C)NC(=O)[C@H](C(C)(C)C)NC(=O)[C@H](CCN)NC(=O)[C@H](Cc2c[nH]c3ccccc23)NC(=O)[C@H](CCN)NC(=O)[C@@H](CCN)NC(=O)[C@H](CCCN)NC(=O)[C@H](CCN)NC(=O)[C@H](CC2CCCCC2)NC1=O [compound 52] (cyclo([Dap]([CO-NH(2-ClPh)])A[Cha][Dab][Orn][dDab][Dab]W[Dab][Tle]AS[dP]P))
Hemolysis at 100 μg/ml [1, 5]: 0%
Acinetobacter baumannii DSM 30008 MIC [2]: 2 µg/mL
Escherichia coli ATCC 25922 MIC [3]: 1 µg/mL
Klebsiella pneumoniae ATCC 13883 MIC [4]: 1 µg/mL

C[C@@H]1NC(=O)[C@H](CNC(=O)Nc2ccc(Cl)cc2)NC(=O)[C@@H]2CCCN2C(=O)[C@H]2CCCN2C(=O)[C@H](CO)NC(=O)[C@H](C)NC(=O)[C@H](C(C)(C)C)NC(=O)[C@H](CCN)NC(=O)[C@H](Cc2c[nH]c3ccccc23)NC(=O)[C@H](CCN)NC(=O)[C@@H](CCN)NC(=O)[C@H](CCCN)NC(=O)[C@H](CCN)NC(=O)[C@H](CC2CCCCC2)NC1=O [compound 53] (cyclo([Dap]([CO-NH(4-Cl-phenyl)])A[Cha][Dab][Orn][dDab][Dab]W[Dab][Tle]AS[dP]P))
Hemolysis at 100 μg/ml [1, 5]: 2%
Acinetobacter baumannii DSM 30008 MIC [2]: 1 µg/mL
Escherichia coli ATCC 25922 MIC [3]: 1 µg/mL
Klebsiella pneumoniae ATCC 13883 MIC [4]: 1 µg/mL

C[C@@H]1NC(=O)[C@H](C(C)(C)C)NC(=O)[C@H](CCN)NC(=O)[C@H](Cc2c[nH]c3ccccc23)NC(=O)[C@H](CCN)NC(=O)[C@@H](CCN)NC(=O)[C@H](CCCN)NC(=O)[C@H](CCN)NC(=O)[C@H](Cc2ccc(O)cc2)NC(=O)[C@H](CN)NC(=O)[C@H](Cc2ccccc2)NC(=O)[C@@H]2CCCN2C(=O)[C@H]2CCCN2C(=O)[C@H](CO)NC1=O [compound 160] (cyclo(F[Dap]Y[Dab][Orn][dDab][Dab]W[Dab][Tle]AS[dP]P))
Hemolysis at 100 μg/ml ([1]; red cells of human, 1 h, 100): 1%

CC(C)C[C@@H]1NC(=O)[C@H](C)NC(=O)[C@H](C(C)(C)C)NC(=O)[C@H](CCN)NC(=O)[C@H](Cc2c[nH]c3ccccc23)NC(=O)[C@H](CCN)NC(=O)[C@@H](CCN)NC(=O)[C@H](CCCN)NC(=O)[C@H](CCN)NC(=O)[C@H](Cc2ccc(O)cc2)NC(=O)[C@H](CO)NC(=O)[C@H]([C@@H](C)O)NC(=O)[C@@H]2CCCN2C(=O)[C@H]2CCCN2C1=O [compound 161] (cyclo(TSY[Dab][Orn][dDab][Dab]W[Dab][Tle]AL[dP]P))
Hemolysis at 100 μg/ml ([1]; red cells of human, 1 h, 100): 2%
